Results published in US20050085557A1, “Therapeutic procedures” (priority 2003, published 2005).

What was measured:
[1] = test system: J774.1 macrophages; experiment: Lipid-loading assay (foam cell formation); assay type: cell-based, murine; conditions: LDL 100 μg/mL with compound (20 μM), 72 h, unactivated J774.1 macrophages
Method: Macrophages were first grown for 24 h in RPMI-1640 containing 10% fetal bovine serum and then incubated for 72 h in the same media containing LDL (100 μg/mL). Cells were fixed with 4% formaldehyde and stained with hematoxylin and oil red O such that lipid granules stained a darker red color. Magnification×100.
J774.1 macrophages were grown for 24 h in RPMI-1640 containing 10% fetal bovine serum. […] Cells were fixed with 4% formaldehyde and stained with hematoxylin and oil red O such that lipid granules stained a darker red color. Magnification×100.
Lipid-loading assay (foam cellformation). J774.1 macrophages were incubated in ATCC-recommended media containing 10% fetal bovine serum under a controlled atmosphere of 5 or 7% CO2 at 37° C., in 8-well chamber slides. […] At termination, cells were washed twice with PBS (pH 7.4). The cells were then fixed with 6% (v/v) paraformaldehyde in PBS for 30 minutes, rinsed with propylene glycol for 2 minutes and lipids were stained with 5 mg/ml Oil Red O for 8 minutes. The cells were counterstained with Harris' hematoxylin for 45 seconds, and background staining was removed with […] followed by washing once in PBS and once in tap water. […] The number of lipid-laden cells was scored out of a total of at least 100 cells counted in a single field in each slide, and expressed as a percentage of total cells. […]

[2] = molecular target: T1, LDL / apoB-100 (Homo sapiens, UniProt P04114); experiment: Circular dichroism of LDL secondary structure; assay type: biochemical; conditions: LDL 100 μg/ml, compound 10 μM, PBS pH 7.4, 37° C., 48 h; for random coil of LDL after incubation (circular dichroism): normal LDL 27±2%; for a helical structure of LDL after incubation (circular dichroism): normal LDL ~40±2%
T1 construct: Circular dichroism (CD) spectra of LDL (100 μg/ml)
Method: Circular dichroism. […] Spectra were recorded in the peptidic range (200-260 nm). To increase the signal-to-noise ratio, multiple spectra (three) were averaged for each measurement.

[3] = Aldolization of ketoaldehyde 4a with amino acids (1H NMR); assay type: physicochemical; conditions: DMSO-d6 (800 μl) and D2O (80 μl) without amino acid
Method: Aldolization of ketoaldehyde 4a with amino acids. […] To this solution was added 1 equivalent of either: a) L-proline, […] b) glycine, c) L-lysine hydrochloride or d) L-lysine ethyl ester dihydrochloride. At time points the samples were analyzed by ^1H NMR.

[4] = Aldolization of secoketoaldehyde 4a with atherosclerotic artery and blood fractions (1H NMR); assay type: in vitro ADME, human; conditions: lyophilized PBS
Method: Aldolization of secoketoaldehyde 4a with atherosclerotic artery and blood fractions. […] To this solution was added either a) atherosclerotic artery (2.1 mg) that had been homogenized in PBS (1 ml) in a tissue homogenizer and then lyophilized to dryness, b) lyophilized human blood (1 ml), c) lyophilized human plasma (1 ml) or d) PBS lyophilized (1 ml). At time points samples were removed and analyzed by ^1H NMR vide supra.

[5] = test system: human B-lymphocyte (WI-L2) cell line; experiment: Cytotoxicity assay (LDH release), WI-L2; assay type: cell-based; conditions: FIG. 6A; in this concentration range (0-100 μM)
Method: Cytotoxicity assays. WI-L2 human B-lymphocyte line, HAAE-1 human abdominal aortic endothelial line, MH-S murine alveolar macrophage line, and J774A.1 murine tissue macrophage line were obtained from the ATCC. Human aortic endothelial cells (HAEC) and human vascular smooth muscle cells (VSMS) were obtained from Cambrex Bio Science. Jurkat E6-IT-lymphocytes were kindly provided by Dr. J. Kaye (The Scripps Research Institute). Cells were cultured in ATCC-recommended media with 10% fetal calf serum. Cells were incubated in a controlled atmosphere at 37° C., with 5 or 7% CO2. For lactate dehydrogenase (LDH) release assays, adherent cells were harvested either by addition of 0.05% trypsin/EDTA or by scraping. The cells obtained were seeded onto 96-well microtiter plates (25,000 cells/well) and allowed to recover for 24-48 h. […] Cytotoxicity was then determined by measuring lactate dehydrogenase (LDH) release from cells in culture. […] 100% Cytotoxicity was defined as the maximum amount of LDH released by dead cells as shown by trypan blue exclusion, or the highest amount of LDH detected upon lysis of cells by 0.9% Triton X-100. The IC50 values were determined by comparison of the raw duplicate data for concentration versus cytotoxicity (%) to non-linear regression analysis (Hill plot) using Graphpad v3.0 software for Macintosh. […]

[6] = test system: T-lymphocyte cell line (Jurkat E6.1); experiment: Cytotoxicity assay (LDH release), Jurkat E6.1; assay type: cell-based; conditions: FIG. 6B; in this concentration range (0-100 μM)
Method: Cytotoxicity assays. WI-L2 human B-lymphocyte line, HAAE-1 human abdominal aortic endothelial line, MH-S murine alveolar macrophage line, and J774A.1 murine tissue macrophage line were obtained from the ATCC. Human aortic endothelial cells (HAEC) and human vascular smooth muscle cells (VSMS) were obtained from Cambrex Bio Science. […] Cells were cultured in ATCC-recommended media with 10% fetal calf serum. Cells were incubated in a controlled atmosphere at 37° C., with 5 or 7% CO2. For lactate dehydrogenase (LDH) release assays, adherent cells were harvested either by addition of 0.05% trypsin/EDTA or by scraping. The cells obtained were seeded onto 96-well microtiter plates (25,000 cells/well) and allowed to recover for 24-48 h. Cells were washed gently and media replaced with fresh media containing 5% fetal calf serum. […] Cytotoxicity was then determined by measuring lactate dehydrogenase (LDH) release from cells in culture. […] 100% Cytotoxicity was defined as the maximum amount of LDH released by dead cells as shown by trypan blue exclusion, or the highest amount of LDH detected upon lysis of cells by 0.9% Triton X-100. The IC50 values were determined by comparison of the raw duplicate data for concentration versus cytotoxicity (%) to non-linear regression analysis (Hill plot) using Graphpad v3.0 software for Macintosh. […]

T1 sequence (P04114 28-4563, species assumed): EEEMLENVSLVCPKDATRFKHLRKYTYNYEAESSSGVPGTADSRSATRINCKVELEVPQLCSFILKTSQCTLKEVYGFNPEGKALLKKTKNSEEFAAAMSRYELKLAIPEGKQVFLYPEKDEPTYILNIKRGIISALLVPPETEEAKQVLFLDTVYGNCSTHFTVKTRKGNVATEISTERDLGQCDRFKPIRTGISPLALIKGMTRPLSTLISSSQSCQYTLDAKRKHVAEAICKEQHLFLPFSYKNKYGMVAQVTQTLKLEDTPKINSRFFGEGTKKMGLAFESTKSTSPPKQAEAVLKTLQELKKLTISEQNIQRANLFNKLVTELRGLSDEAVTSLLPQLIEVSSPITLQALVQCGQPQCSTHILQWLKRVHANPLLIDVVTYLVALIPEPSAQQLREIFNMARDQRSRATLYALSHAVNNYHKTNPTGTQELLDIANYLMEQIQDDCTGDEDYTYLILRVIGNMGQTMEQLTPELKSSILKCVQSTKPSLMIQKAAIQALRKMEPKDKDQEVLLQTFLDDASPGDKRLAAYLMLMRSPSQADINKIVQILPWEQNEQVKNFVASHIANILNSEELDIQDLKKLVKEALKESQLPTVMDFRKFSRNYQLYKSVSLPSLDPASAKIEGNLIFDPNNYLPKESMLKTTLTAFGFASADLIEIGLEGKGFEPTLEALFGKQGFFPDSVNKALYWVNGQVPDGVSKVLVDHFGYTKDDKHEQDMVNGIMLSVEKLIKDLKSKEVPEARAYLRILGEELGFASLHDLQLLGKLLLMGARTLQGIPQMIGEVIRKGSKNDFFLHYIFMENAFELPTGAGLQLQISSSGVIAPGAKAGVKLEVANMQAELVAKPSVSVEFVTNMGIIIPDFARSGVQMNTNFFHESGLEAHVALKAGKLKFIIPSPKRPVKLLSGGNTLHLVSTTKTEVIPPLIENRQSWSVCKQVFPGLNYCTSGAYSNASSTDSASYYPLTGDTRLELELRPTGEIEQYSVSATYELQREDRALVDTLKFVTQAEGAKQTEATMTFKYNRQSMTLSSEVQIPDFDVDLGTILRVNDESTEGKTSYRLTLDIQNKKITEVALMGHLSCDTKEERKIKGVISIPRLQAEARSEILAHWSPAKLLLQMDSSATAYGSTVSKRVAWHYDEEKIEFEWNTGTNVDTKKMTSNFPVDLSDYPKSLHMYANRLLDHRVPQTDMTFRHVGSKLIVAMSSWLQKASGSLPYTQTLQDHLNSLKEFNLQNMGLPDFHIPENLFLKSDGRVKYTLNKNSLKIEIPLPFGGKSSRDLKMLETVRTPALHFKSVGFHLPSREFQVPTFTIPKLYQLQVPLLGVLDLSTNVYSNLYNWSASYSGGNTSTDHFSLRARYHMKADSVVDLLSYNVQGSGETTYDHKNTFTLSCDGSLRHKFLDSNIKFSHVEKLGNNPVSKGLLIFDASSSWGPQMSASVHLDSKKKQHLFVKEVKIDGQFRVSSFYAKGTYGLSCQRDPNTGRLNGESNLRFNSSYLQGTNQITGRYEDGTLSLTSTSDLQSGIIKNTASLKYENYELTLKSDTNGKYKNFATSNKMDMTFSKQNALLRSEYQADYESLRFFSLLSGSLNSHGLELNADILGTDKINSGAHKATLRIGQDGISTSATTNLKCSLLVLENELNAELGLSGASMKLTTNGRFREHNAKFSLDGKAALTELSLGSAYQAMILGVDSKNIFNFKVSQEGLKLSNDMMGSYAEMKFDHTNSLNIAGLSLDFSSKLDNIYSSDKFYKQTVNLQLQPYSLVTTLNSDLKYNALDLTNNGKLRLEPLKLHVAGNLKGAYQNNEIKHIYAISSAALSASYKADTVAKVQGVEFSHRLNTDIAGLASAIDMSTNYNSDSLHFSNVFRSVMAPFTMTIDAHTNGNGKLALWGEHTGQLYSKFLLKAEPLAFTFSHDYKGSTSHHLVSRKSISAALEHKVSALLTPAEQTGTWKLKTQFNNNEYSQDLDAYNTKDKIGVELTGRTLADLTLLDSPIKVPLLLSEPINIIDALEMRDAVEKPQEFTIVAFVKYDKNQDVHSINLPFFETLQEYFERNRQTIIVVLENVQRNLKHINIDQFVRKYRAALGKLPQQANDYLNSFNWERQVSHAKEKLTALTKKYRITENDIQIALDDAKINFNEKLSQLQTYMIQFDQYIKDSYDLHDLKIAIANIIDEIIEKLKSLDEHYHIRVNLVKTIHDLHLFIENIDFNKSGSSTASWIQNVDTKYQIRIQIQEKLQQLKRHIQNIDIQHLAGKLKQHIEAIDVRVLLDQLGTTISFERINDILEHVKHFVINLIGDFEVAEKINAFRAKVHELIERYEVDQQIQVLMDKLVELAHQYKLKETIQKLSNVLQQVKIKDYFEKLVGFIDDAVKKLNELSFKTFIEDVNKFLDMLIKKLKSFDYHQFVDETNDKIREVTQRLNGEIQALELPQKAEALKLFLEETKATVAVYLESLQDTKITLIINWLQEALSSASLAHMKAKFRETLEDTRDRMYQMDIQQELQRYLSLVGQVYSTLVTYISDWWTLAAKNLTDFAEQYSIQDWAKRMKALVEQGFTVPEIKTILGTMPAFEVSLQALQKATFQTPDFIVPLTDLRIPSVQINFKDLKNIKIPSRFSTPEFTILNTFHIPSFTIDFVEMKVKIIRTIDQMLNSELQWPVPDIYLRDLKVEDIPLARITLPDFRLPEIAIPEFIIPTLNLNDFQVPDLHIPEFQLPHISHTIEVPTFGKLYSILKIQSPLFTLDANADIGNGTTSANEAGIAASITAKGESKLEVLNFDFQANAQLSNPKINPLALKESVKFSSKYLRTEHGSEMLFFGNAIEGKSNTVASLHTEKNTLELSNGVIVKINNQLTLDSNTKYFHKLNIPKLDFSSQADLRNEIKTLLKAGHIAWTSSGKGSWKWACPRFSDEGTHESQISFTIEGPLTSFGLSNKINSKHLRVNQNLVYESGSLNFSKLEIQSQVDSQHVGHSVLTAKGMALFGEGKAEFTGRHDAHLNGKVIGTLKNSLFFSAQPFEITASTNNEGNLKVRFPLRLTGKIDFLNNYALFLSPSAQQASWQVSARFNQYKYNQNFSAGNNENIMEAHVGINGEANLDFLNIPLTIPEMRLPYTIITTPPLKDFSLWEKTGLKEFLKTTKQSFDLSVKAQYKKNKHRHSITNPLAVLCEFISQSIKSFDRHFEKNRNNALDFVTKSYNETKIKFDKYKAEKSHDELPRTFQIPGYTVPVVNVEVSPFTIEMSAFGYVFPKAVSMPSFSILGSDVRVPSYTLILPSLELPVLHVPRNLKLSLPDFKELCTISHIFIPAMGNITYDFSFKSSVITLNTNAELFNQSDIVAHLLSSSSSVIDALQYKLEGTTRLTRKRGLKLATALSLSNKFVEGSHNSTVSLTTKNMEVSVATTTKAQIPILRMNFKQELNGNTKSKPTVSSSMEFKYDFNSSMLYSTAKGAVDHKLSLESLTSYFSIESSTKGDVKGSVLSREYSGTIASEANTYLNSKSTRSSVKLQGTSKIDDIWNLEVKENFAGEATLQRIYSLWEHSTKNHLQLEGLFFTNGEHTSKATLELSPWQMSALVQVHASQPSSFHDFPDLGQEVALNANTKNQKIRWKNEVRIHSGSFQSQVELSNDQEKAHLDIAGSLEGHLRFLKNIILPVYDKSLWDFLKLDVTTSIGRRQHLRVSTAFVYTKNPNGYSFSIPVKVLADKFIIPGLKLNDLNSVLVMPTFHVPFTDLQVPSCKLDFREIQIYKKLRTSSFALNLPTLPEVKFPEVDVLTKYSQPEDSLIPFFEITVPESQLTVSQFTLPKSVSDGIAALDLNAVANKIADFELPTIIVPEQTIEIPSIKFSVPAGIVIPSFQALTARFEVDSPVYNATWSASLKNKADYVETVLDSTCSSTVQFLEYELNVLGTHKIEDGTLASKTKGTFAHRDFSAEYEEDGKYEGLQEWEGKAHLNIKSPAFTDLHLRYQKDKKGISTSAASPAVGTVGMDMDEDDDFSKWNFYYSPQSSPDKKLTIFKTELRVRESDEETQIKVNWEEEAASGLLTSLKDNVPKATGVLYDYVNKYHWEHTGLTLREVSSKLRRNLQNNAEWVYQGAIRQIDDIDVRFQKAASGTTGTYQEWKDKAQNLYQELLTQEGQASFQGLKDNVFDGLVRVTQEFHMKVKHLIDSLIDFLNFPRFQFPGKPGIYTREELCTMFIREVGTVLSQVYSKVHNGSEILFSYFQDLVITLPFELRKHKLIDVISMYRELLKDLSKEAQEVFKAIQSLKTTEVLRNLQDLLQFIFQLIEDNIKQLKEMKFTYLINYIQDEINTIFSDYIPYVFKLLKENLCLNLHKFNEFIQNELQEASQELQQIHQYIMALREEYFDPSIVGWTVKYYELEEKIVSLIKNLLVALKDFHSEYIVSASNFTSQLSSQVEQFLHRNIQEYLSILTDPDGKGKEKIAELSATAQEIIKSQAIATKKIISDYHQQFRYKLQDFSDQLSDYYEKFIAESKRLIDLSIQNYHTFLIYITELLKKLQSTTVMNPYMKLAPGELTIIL

CC(C)CCC[C@@H](C)[C@H]1CCC2C3C(CC[C@@]21C)[C@@]1(C)CC[C@H](O)C[C@@]1(O)[C@@H]3C=O (stereo partly drawn) [5a, 3β-Hydroxy-5β-hydroxy-B-norcholestane-6β-carboxaldehyde]
lipid-loading of macrophages / foam cell formation [1]: foam cells began to appear
random coil of LDL after incubation (circular dichroism) [2]: 32±+4%
a helical structure of LDL after incubation (circular dichroism) [2]: ~20±2%

CC(C)CCC[C@@H](C)[C@H]1CCC2C(CC=O)C([C@@]3(C)CC[C@H](O)CC3=O)CC[C@@]21C (stereo partly drawn) [4a, 3β-Hydroxy-5-oxo-5,6-secocholestan-6-al]
aldolization of 4a (background) [3]: no aldolization
lipid-loading of macrophages / foam cell formation [1]: foam cells began to appear
aldolization of 4a (background) [4]: no aldolization
random coil of LDL after incubation (circular dichroism) [2]: ~39±2%
a helical structure of LDL after incubation (circular dichroism) [2]: ~23±5%

CC(C)CCC[C@@H](C)[C@H]1CC[C@H]2[C@@H]3CC=C4C[C@@H](O)CC[C@]4(C)[C@H]3CC[C@]12C [compound 3, cholesterol]
cytotoxicity against B-cell (WI-L2) cell line [5]: No cytotoxicity
cytotoxicity against T-cell (Jurkat) cell line [6]: No cytotoxicity
